Where a SMILES comes first, the peptide text is derived from it. Where no end group is shown, it is not given here.
Legend:
PBMC = PBMC stimulation test, IL-6 in supernatant by ELISA; type: cell-based, human; conditions: PBMC 1×10^6 cell/ml, peptide 10 μg/ml, 5 days of culture
Excerpt: The SE-DR molecule is directly related to the pathogenesis of RA. It can present RA-related autoantigens in vivo, such as type II collagen (CII), heat shock protein 60 (Hsp60), cartilage glycoprotein (HCgp-39) and so on, and further activate autoreactive T cells, leading to the occurrence of rheumatoid arthritis. An important strategy for the treatment of RA is to use competitive inhibition to block the activation of autoreactive T cells by autoantigen peptides. […] Based on the above principles, we have designed and synthesized a series of altered peptide ligands, and screened for their affinity to SE-DR and for the activation ability on the peripheral blood T cells in RA patients. The specific steps and results are shown in Example 1 and Example 2.
3 mL ficoll was added to a 15 mL centrifuge tube, and 4 mL blood sample was then applied on the surface of ficoll. The tube was centrifuged at 400 g at 18-20° C. for 30-40 min. The upper layer of plasma was aspirated with a Pasteur pipette, and the PBMC layer (approximately 2 mL) was aspirated, and added to a 14 mL centrifuge tube previously filled with at least 3 volumes (6 mL) of PBS. The mixture was gently resuspended. The tube was centrifuged at 60-100 g for 10 min at 18-20° C. After centrifugation, the supernatant was removed with a Pasteur pipette, and the resulting cell mass was resuspended in 6-8 mL PBS and centrifuged at 18-20° C. for 10 min at 60-100 g to remove the supernatant. The cells were resuspended in an appropriate amount of 1640 complete medium and diluted to 1×10^6 cell/ml after cell counting. The diluted cell suspension was added to a 96-well plate. The positive control, allosteric peptide, was added to 100 μl cell culture to a final concentration of 10 μg/ml. The mixture was replenished to 200 μL with 1640 complete medium. After 5 days of culture, the supernatant was aspirated, centrifuged at 3000 rpm for 5 minutes, and the level of IL-6 in the supernatant was detected by ELISA.

[1] = system: immune system of healthy monkeys; assay: Immune indicators of cynomolgus monkeys after one month of administration (Example 5); type: in vivo, cynomolgus monkey; conditions: once a day for 4 weeks, end of administration
Excerpt: Cynomolgus monkeys were used to investigate the effects of the SE-DR affinity peptide on the immune indicators of cynomolgus monkeys after continuous administration for one month. […] At the end of administration, the immune indicators, including the serum anti-FNS007 antibodies, the immunoglobulins of different serotypes, the serum complement, the peripheral blood T lymphocyte and the serum cytokines, were observed.

[2] = system: immune system of healthy rats; assay: Immune indicators of SD rats after one month of administration (Example 4); type: in vivo, rat; conditions: once a day for 4 weeks, end of administration
Protocol: SD rats were used to investigate the effects of the SE-DR affinity peptides on the immune indicators of the rats after continuous administration for one month. […] At the end of administration, analysis was conducted on the serum anti-FNS007 antibodies, different types of serum immunoglobulins, the serum complement, the peripheral blood T lymphocyte and the serum cytokines.

[3] = system: CIA rats with latent tuberculosis infection
[4] = system: CIA mice infected with chronic hepatitis B; assay: CIA mice infected with chronic hepatitis B (Example 8); type: in vivo, mouse
Protocol: Establishment of chronic hepatitis B model in mice: DBA/1 mice were injected with Raav8-1. 3 HBV (1×10^12 vg/mL) via tail vein to establish HBV chronic hepatitis B model.
DBA/1 mice infected with chronic hepatitis B were used to establish CIA model with chronic hepatitis B infection. Methods: Two days after the mice were injected with Raav8-1.3 HBV (1×10^12 vg/mL) via tail vein, the emulsion of bovine C II and CFA (containing 100 μg collagen) was intradermally injected into the tail head of the mice for immunization. After 21 days, the mice were boosted once by intraperitoneal injection of the emulsion (containing 100 μg collagen) prepared by bovine C II and IFA. Thereafter, the morphological changes of the four paws of the mice were examined every day, and the mice were randomly assigned to the treatment group at inflammation score of 1. […] Another 10 mice with latent hepatitis B infection were not subjected to model establishment and set as the control group. PBS was administrated to both the model group and the control group. The mice in each group were given the corresponding drugs by tail intravenous injection at the volume of 10 ml/kg, once every other day, for 27 consecutive days. The mice were sacrificed on day 28 after administration. The inflammation scores of the four paws of the mice in each group were evaluated during the administration. The serological indicators for virus injection and liver function of the mice were detected on the day of booster immunization (22 days after tail vein injection) and at the time of sacrifice.

## RSFTLASSATGVG [APL17]
PBMC
  IL-6 levels in the supernatant: 5.4 ng/mL

## CC(C)C[C@H](NC(=O)[C@H](CCCNC(N)=O)NC(=O)[C@@H](NC(=O)[C@H](C)NC(=O)[C@H](CO)NC(=O)[C@H](CO)NC(=O)[C@H](CCCNC(N)=O)NC(=O)[C@@H](NC(=O)[C@H](C)NC(=O)[C@H](Cc1ccc(O)cc1)NC(=O)[C@@H](NC(=O)CN)C(C)C)[C@@H](C)O)C(C)C)C(=O)N[C@@H](CCCNC(N)=O)C(=O)O [APL34, GVYATCitSSAACitLCit]
PBMC
  IL-6 levels in the supernatant: 5.2 ng/mL

## YAKQATLKLA [APL6]
PBMC
  IL-6 levels in the supernatant: 6.5 ng/mL

## CC(C)C[C@H](NC(=O)[C@@H](NC(=O)[C@H](Cc1ccccc1)NC(=O)[C@H](CO)NC(=O)[C@@H](N)CCCNC(=N)N)[C@@H](C)O)C(=O)N[C@@H](CC(=O)O)C(=O)N[C@@H](CO)C(=O)N[C@@H](CO)C(=O)N[C@@H](CCC(=O)O)C(=O)N[C@H](C(=O)NCC(=O)N[C@H](C(=O)NCC(=O)O)C(C)C)[C@@H](C)O [APL15]
PBMC
  IL-6 levels in the supernatant: 8.7 ng/mL

## CC(C)C[C@H](NC(=O)[C@@H](NC(=O)[C@H](Cc1ccccc1)NC(=O)[C@H](CO)NC(=O)[C@@H](N)CCCNC(=N)N)[C@@H](C)O)C(=O)N[C@@H](CC(=O)O)C(=O)NCC(=O)N[C@@H](CO)C(=O)N[C@@H](CCC(=O)O)C(=O)N[C@H](C(=O)NCC(=O)N[C@H](C(=O)NCC(=O)O)C(C)C)[C@@H](C)O [APL19]
PBMC
  IL-6 levels in the supernatant: 15.8 ng/mL

## CC(C)C[C@H](NC(=O)[C@H](CCCCN)NC(=O)[C@H](CC(N)=O)NC(=O)[C@H](C)NC(=O)[C@H](CCCNC(N)=O)NC(=O)[C@H](CC(N)=O)NC(=O)[C@@H](NC(=O)[C@H](Cc1ccccc1)NC(=O)[C@H](CC(=O)O)NC(=O)[C@@H](N)CCC(N)=O)[C@@H](C)O)C(=O)N[C@@H](CCCCN)C(=O)N[C@@H](CC(N)=O)C(=O)N[C@@H](CO)C(=O)O [APL35, QDFTNCitANKLKNS]
PBMC
  IL-6 levels in the supernatant: 20.8 ng/mL

## CC(C)C[C@H](NC(=O)[C@H](CCCNC(=N)N)NC(=O)[C@@H](NC(=O)[C@H](C)NC(=O)[C@@H](N)CO)C(C)C)C(=O)N[C@@H](CCCNC(N)=O)C(=O)N[C@@H](CCCNC(=N)N)C(=O)N[C@@H](CO)C(=O)N[C@H](C(=O)N1CCC[C@H]1C(=O)NCC(=O)N[C@H](C(=O)N[C@@H](CCCNC(=N)N)C(=O)O)C(C)C)C(C)C [APL26, SAVRLCitRSVPGVR]
PBMC
  IL-6 levels in the supernatant: 7 ng/mL

## CC(C)C[C@H](NC(=O)[C@H](C)NC(=O)[C@@H](NC(=O)[C@H](C)NC(=O)[C@@H](N)CO)C(C)C)C(=O)N[C@@H](CCCNC(N)=O)C(=O)N[C@@H](CO)C(=O)N[C@@H](CO)C(=O)N[C@H](C(=O)N1CCC[C@H]1C(=O)NCC(=O)N[C@H](C(=O)N[C@@H](CCCNC(=N)N)C(=O)O)C(C)C)C(C)C [APL24, SAVALCitSSVPGVR]
PBMC
  IL-6 levels in the supernatant: 6.6 ng/mL

## CC(C)C[C@H](NC(=O)CNC(=O)[C@H](CCCNC(N)=O)NC(=O)[C@H](C)NC(=O)[C@@H]1CCCN1C(=O)[C@@H]1CCCN1C(=O)[C@@H]1CCCN1C(=O)[C@H](C)NC(=O)[C@@H]1CCCN1C(=O)[C@H](CCCNC(N)=O)NC(=O)[C@H](CO)NC(=O)[C@H](CCCNC(=N)N)NC(=O)CNC(=O)[C@H](CCCNC(N)=O)NC(=O)[C@@H](NC(=O)[C@H](CO)NC(=O)[C@H](CCC(=O)O)NC(=O)[C@@H](NC(=O)[C@H](CO)NC(=O)[C@H](CO)NC(=O)[C@H](CCCNC(N)=O)NC(=O)[C@H](CC(C)C)NC(=O)[C@H](CCCNC(N)=O)NC(=O)[C@@H](N)C(C)C)C(C)C)[C@@H](C)O)C(=O)N[C@H](C(=O)O)[C@@H](C)O [APL37, VCitLCitSSVESTCitGRSCitPAPPPACitGLT]
[1]
  CD3%: 64.55 ± 17.31%
  CD4%: 28.84 ± 9.35%
  CD8%: 27.61 ± 9.99%
  IFN-γ: 5.11 ± 0.54 pg/mL
  IL-2: 4.46 ± 0.44 pg/mL
  IL-4: 2.18 ± 0.29 pg/mL
  TNF-α: 2.51 ± 0.41 pg/mL
[2]
  CD3%: 38.29 ± 11.34%
  CD4%: 19.25 ± 7.84%
  CD8%: 18.33 ± 6.15%
  IFN-γ: 2.44 ± 0.31 pg/mL
  IL-2: 3.28 ± 2.59 pg/mL
  IL-4: 1.77 ± 0.85 pg/mL
  TNF-α: 4.96 ± 2.01 pg/mL
[3]; during administration
  Observation on the daily condition of rats: No abnormality
[3]; peptides 0.2 mmol, adalimumab 1 mg/kg, 21 days
  Tuberculosis recurrence rate: 0%
[3]; sacrifice on day 22, peptides 0.2 mmol, adalimumab 1 mg/kg
  Culture of MTB from lungs and spleens of rats at sacrifice: Negative
[4]; at sacrifice, day 28
  ALT level: 47.37 ± 21.13 U/L
[4]; during administration
  Observation on the daily condition of mice: No abnormality

## YVAQNTLKLA [APL5]
PBMC
  IL-6 levels in the supernatant: 8.7 ng/mL

## CC(C)C[C@H](NC(=O)[C@H](CC(C)C)NC(=O)[C@@H](NC(=O)[C@@H](N)C(C)C)C(C)C)C(=O)N[C@H](C(=O)N[C@@H](C)C(=O)N[C@H](C(=O)N[C@@H](CCC(=O)O)C(=O)NCC(=O)N[C@@H](CCCNC(N)=O)C(=O)N[C@H](C(=O)N[C@@H](CCCNC(=N)N)C(=O)N[C@H](C(=O)N[C@@H](C)C(=O)N[C@@H](CO)C(=O)N[C@@H](C)C(=O)N[C@@H](Cc1ccc(O)cc1)C(=O)N[C@@H](CCC(N)=O)C(=O)N[C@@H](CC(=O)O)C(=O)N[C@@H](CCCCN)C(=O)O)C(C)C)C(C)C)[C@@H](C)O)C(C)C [APL36]
PBMC
  IL-6 levels in the supernatant: 6.8 ng/mL

## C[C@H](NC(=O)CNC(=O)CNC(=O)[C@H](CCC(N)=O)NC(=O)[C@H](CCC(=O)O)NC(=O)CNC(=O)[C@H](CCCCN)NC(=O)[C@@H](N)Cc1ccccc1)C(=O)NCC(=O)N[C@@H](CCC(=O)O)C(=O)O [APL1]
PBMC
  IL-6 levels in the supernatant: 18.9 ng/mL

## RSFTLAASETGVG [APL16]
PBMC
  IL-6 levels in the supernatant: 6.8 ng/mL

## CC[C@H](C)[C@H](N)C(=O)N[C@@H](Cc1c[nH]c2ccccc12)C(=O)N[C@@H](Cc1ccc(O)cc1)C(=O)N[C@H](C(=O)N[C@H](C(=O)N[C@@H](CS)C(=O)N[C@@H](Cc1ccccc1)C(=O)NCC(=O)N[C@@H](CS)C(=O)N[C@@H](CCC(=O)O)C(=O)N[C@H](C(=O)N[C@@H](Cc1c[nH]cn1)C(=O)N[C@@H](C)C(=O)N[C@@H](CCSC)C(=O)N[C@@H](CC(C)C)C(=O)O)[C@@H](C)O)[C@@H](C)O)[C@@H](C)CC [APL10] (H-IWYITCFGCETHAML-OH; N-terminus and C-terminus assumed)
PBMC
  IL-6 levels in the supernatant: 4.9 ng/mL

— US20250074946A1, “USE OF SE-DR AFFINITY PEPTIDE IN PREPARING DRUG FOR TREATING RHEUMATIC DISEASE” (HEBEI FITNESS BIOTECHNOLOGY CO., LTD., priority 2021, published 2025)
